Where “and” joins values, the source holds several entries; their conditions need not be identical. Equal values may be shown once. Read-outs that look alike come from different tables or passages of the source.
Columns and labels:
human recombinant GCL = human recombinant GCL (Homo sapiens (Human), UniProt P48506); test: GCL enzyme profiling assay (ADP-Glo luminescence); type: biochemical; settings: human recombinant GCL 5 nM, 1 h preincubation with ATP
Summary of the method: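 ADP-Glo luminescence readout; 5 nM enzyme preincubated 1 h at 22 °C with 0.6 mM ATP, then started with 1 mM glutamate and 1.2 mM α-aminobutyrate, stopped after 2 h. Buffer: HEPES pH 7.5, MgCl2, DTT, BSA, 0.2% F-127, 1% DMSO. IC50 from four-parameter logistic fit.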

RKN cells = test: RKN cell profiling assay (cell viability, CellTiter-Glo); type: cell-based; settings: 96 h exposure
Summary of the method: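 Cells seeded at 1,000/well in F-12 with 10% FBS, left to adhere 24 h, then compound-treated for 96 h at 0.5% final DMSO. Viability by CellTiter-Glo luminescence; EC50 from four-parameter logistic fit. Ferroptosis rescue runs included 1.5 μM ferrostatin-1 added at seeding.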

[1] = 96 h, read-out: Cell Killing EC50
[2] = read-out: GCL IC50 (mM), individual values in parentheses

Sequence of human recombinant GCL (P48506 whole entry): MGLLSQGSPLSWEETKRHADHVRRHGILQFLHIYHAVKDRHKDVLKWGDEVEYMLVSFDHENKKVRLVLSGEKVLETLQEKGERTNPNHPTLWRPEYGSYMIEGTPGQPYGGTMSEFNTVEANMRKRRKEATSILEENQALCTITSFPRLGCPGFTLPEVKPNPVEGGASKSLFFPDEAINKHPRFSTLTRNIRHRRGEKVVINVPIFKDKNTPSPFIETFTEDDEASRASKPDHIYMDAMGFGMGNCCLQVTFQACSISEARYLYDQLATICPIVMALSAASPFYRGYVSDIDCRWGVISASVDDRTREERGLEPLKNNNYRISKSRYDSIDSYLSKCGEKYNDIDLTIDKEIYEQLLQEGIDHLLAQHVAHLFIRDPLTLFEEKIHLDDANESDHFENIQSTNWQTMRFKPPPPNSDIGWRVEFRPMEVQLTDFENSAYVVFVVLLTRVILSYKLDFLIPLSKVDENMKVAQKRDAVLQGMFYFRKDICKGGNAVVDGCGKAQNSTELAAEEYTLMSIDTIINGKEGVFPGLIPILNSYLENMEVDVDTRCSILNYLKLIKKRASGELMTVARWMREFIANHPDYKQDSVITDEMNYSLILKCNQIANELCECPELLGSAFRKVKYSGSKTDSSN

| Structure (SMILES) | IC50 (human recombinant GCL; read-out: GCL IC50) | EC50 (RKN cells; [1]) [mM] | further results |
| --- | --- | --- | --- |
| N=S(=O)(CCCC(F)(F)F)CC[C@H](N)C(=O)Nc1ccccc1 (stereo partly shown) [Compound 132] | > 2 mM | < 1 | – |
| N=S(=O)(CC[C@H](N)C(=O)O)CCC1(O)CC1 (stereo partly drawn) [Compound 135, (2S)-2-amino-4-(2-(1-hydroxycyclopropyl)ethylsulfonimidoyl)butanoic acid] | 0.02 to 2 mM | < 1 | – |
| N=S(=O)(CC[C@H](N)C(=O)O)CC(=O)C1CCCC1 (stereo partly drawn) [Compound 136, (2S)-2-amino-4-(2-cyclopentyl-2-oxoethylsulfonimidoyl)butanoic acid] | 0.02 to 2 mM | ≥ 1 | – |
| N=S(=O)(CC[C@H](N)C(=O)O)CC(O)C1CCCC1 (stereo partly shown) [Compound 137] | 0.02 to 2 mM | < 1 | EC50 (RKN cells; 96 h, read-out: Cell Killing EC50 (mM), individual values in parentheses): 1.47 mM; EC50 (RKN cells; read-out: Cell Killing EC50 (mM), individual values in parentheses): 0.92 mM |
| N=S(=O)(CC[C@H](N)C(=O)O)Cc1ccccc1 (stereo partly shown) [Compound 140] | > 2 mM | ≥ 1 | – |
| N=S(=O)(CCC1CCCC1)CC[C@H](N)C(=O)O (stereo partly shown) [Compound 141] | ≤ 0.02 mM | < 1 | – |
| N=S(=O)(CCC1C2CC3CC(C2)CC1C3)CC[C@H](N)C(=O)O (stereo partly shown) [Compound 143] | 0.02 to 2 mM | ≥ 1 | – |
| CC#CCS(=N)(=O)CC[C@H](N)C(=O)O (stereo partly shown) [Compound 144] | 0.02 to 2 mM | ≥ 1 | – |
| N=S(=O)(CC[C@H](N)C(=O)O)CCN1CCCC1=O (stereo partly shown) [Compound 145] | > 2 mM | ≥ 1 | – |
| CC(C)(C)[C@H](N)CS(=N)(=O)CC[C@H](N)C(=O)O (stereo partly shown) [Compound 148] | 0.02 to 2 mM | ≥ 1 | – |
| N#CC1(CCS(=N)(=O)CC[C@H](N)C(=O)O)CC1 (stereo partly shown) [Compound 151] | 0.02 to 2 mM | ≥ 1 | – |
| CC(C)(CCS(=N)(=O)CC[C@H](N)C(=O)O)C(F)(F)F (stereo partly shown) [Compound 152] | 0.02 to 2 mM | < 1 | – |
| N=S(=O)(CCC(O)C(F)(F)F)CC[C@H](N)C(=O)O (stereo partly drawn) [Compound 154, (2S)-2-amino-4-(4,4,4-trifluoro-3-hydroxybutylsulfonimidoyl)butanoic acid] | ≤ 0.02 mM | < 1 | – |
| COC(CCS(=N)(=O)CC[C@H](N)C(=O)O)C(F)(F)F (stereo partly shown) [Compound 155] | ≤ 0.02 mM | < 1 | – |
| N=S(=O)(/C=C/c1ccccc1)CC[C@H](N)C(=O)O (stereo partly shown) [Compound 156] | 0.02 to 2 mM | ≥ 1 | – |
| N=S(=O)(CCC1CCOCC1)CC[C@H](N)C(=O)O (stereo partly shown) [Compound 157] | 0.02 to 2 mM | ≥ 1 | – |
| COC(C)(C)CCS(=N)(=O)CC[C@H](N)C(=O)O (stereo partly shown) [Compound 158] | 0.02 to 2 mM | < 1 | – |
| CCCCS(=N)(=O)CC[C@H](NC)C(=O)O (stereo partly shown) [Compound 159] | > 2 mM | ≥ 1 | – |
| N=S(=O)(CCC1CC(F)(F)C1)CC[C@H](N)C(=O)O (stereo partly shown) [Compound 161] | 0.02 to 2 mM | < 1 | – |
| COCCS(=N)(=O)CC[C@H](N)C(=O)O (stereo partly shown) [Compound 164] | 0.02 to 2 mM | ≥ 1 | – |
| N=S(=O)(CCC1CCC1)CC[C@H](N)C(=O)O (stereo partly shown) [Compound 165] | ≤ 0.02 mM | < 1 | – |
| CC(C)OCCS(=N)(=O)CC[C@H](N)C(=O)O (stereo partly shown) [Compound 166] | 0.02 to 2 mM | ≥ 1 | – |

| Structure (SMILES) | IC50 (human recombinant GCL; read-out: GCL IC50) | EC50 (RKN cells; [1]) [mM] | further results |
| --- | --- | --- | --- |
| COC(=O)C(C)(C)CCS(=N)(=O)CC[C@H](N)C(=O)O (stereo partly shown) [Compound 167] | 0.02 to 2 mM | < 1 | – |
| N=S(=O)(CCCC(F)F)CC[C@H](N)C(=O)O (stereo partly shown) [Compound 169] | ≤ 0.02 mM and 0.02 to 2 mM | < 1 | IC50 (human recombinant GCL; [2]): 0.0102 mM and 0.1 mM |
| N=S(=O)(CCOC(F)F)CC[C@H](N)C(=O)O (stereo partly shown) [Compound 170] | 0.02 to 2 mM | ≥ 1 | – |
| CC(C)(C#N)CCS(=N)(=O)CC[C@H](N)C(=O)O (stereo partly shown) [Compound 171] | 0.02 to 2 mM | ≥ 1 | – |
| N=S(=O)(CC[C@H](N)C(=O)O)CCC1(F)CCC1 (stereo partly shown) [Compound 173] | 0.02 to 2 mM | < 1 | – |
| CC(O)(CCS(=N)(=O)CC[C@H](N)C(=O)O)C(F)(F)F (stereo partly drawn) [Compound 174, (2S)-2-amino-4-(4,4,4-trifluoro-3-hydroxy-3-methylbutylsulfonimidoyl)butanoic acid] | 0.02 to 2 mM | < 1 | – |
| COC(CC[S@@](=N)(=O)CC[C@H](N)C(=O)O)C(F)(F)F (stereo partly shown) [Compound 177] | > 2 mM | – | EC50 (RKN cells; read-out: Cell Killing EC50): ≥ 1 mM |
| COC(CC[S@](=N)(=O)CC[C@H](N)C(=O)O)C(F)(F)F (stereo partly shown) [Compound 179] | ≤ 0.02 mM | – | EC50 (RKN cells; read-out: Cell Killing EC50): < 1 mM |
| N=S(=O)(CCC1CCCC1(F)F)CC[C@H](N)C(=O)O (stereo partly shown) [Compound 180] | ≤ 0.02 mM | ≥ 1 | – |
| N=S(=O)(CCC1COC1)CC[C@H](N)C(=O)O (stereo partly shown) [Compound 181] | 0.02 to 2 mM | ≥ 1 | – |
| N=S(=O)(CC[C@H](N)C(=O)O)CCC1(CO)CCC1 (stereo partly shown) [Compound 182] | 0.02 to 2 mM | < 1 | – |
| CC(C)(N)CCS(=N)(=O)CC[C@H](N)C(=O)O (stereo partly shown) [Compound 183] | > 2 mM | ≥ 1 | – |
| CC1(CCS(=N)(=O)CC[C@H](N)C(=O)O)COC1 (stereo partly shown) [Compound 185] | 0.02 to 2 mM | – | EC50 (RKN cells; read-out: Cell Killing EC50): ≥ 1 mM |
| N=S(=O)(CCC(C(F)(F)F)C(F)(F)F)CC[C@H](N)C(=O)O (stereo partly shown) [Compound 186] | ≤ 0.02 mM and 0.02 to 2 mM | < 1 | IC50 (human recombinant GCL; [2]): 0.022 mM and 0.0183 mM |
| CC(C)(C)CCS(=N)(=O)CC[C@H](N)C(=O)O (stereo partly shown) [Compound 187] | 0.02 to 2 mM | < 1 | – |
| CCOC(=O)C1(CCS(=N)(=O)CC[C@H](N)C(=O)O)CCC1 (stereo partly shown) [Compound 189] | 0.02 to 2 mM | < 1 | – |
| CC(C)(CCS(=N)(=O)CC[C@H](N)C(=O)O)C(N)=O (stereo partly shown) [Compound 190] | 0.02 to 2 mM | ≥ 1 | – |
| CNC(=O)C1(CCS(=N)(=O)CC[C@H](N)C(=O)O)CCC1 (stereo partly shown) [Compound 192] | 0.02 to 2 mM | ≥ 1 | – |
| CN(C)C(=O)C1(CCS(=N)(=O)CC[C@H](N)C(=O)O)CCC1 (stereo partly shown) [Compound 193] | 0.02 to 2 mM | ≥ 1 | – |
| N=S(=O)(CC[C@H](N)C(=O)O)CCC1(C(=O)N2CCCC2)CCC1 (stereo partly shown) [Compound 194] | 0.02 to 2 mM | ≥ 1 | – |
| CCCCS(=N)(=O)CC[C@H](NC(=O)OC)C(=O)OC (stereo partly drawn) [Compound 198, (2S)-methyl 4-(butylsulfonimidoyl)-2-((methoxycarbonyl)amino)butanoate] | > 2 mM | ≥ 1 | – |
| CCCCS(=N)(=O)CC[C@H](N)C#N (stereo partly drawn) [Compound 199, (2S)-2-amino-4-(butylsulfonimidoyl)butanenitrile] | > 2 mM | ≥ 1 | – |

Second part, led by results:

| IC50 (human recombinant GCL; read-out: GCL IC50) | Structure (SMILES) | EC50 (RKN cells; [1]) [mM] | further results |
| --- | --- | --- | --- |
| > 2 mM | CCCCNC(=O)[C@@H](N)CCS(=N)(=O)CCCC(F)(F)F (stereo partly shown) [Compound 131] | < 1 | – |
| 0.02 to 2 mM | N=S(=O)(CCCC1CC1)CC[C@H](N)C(=O)O (stereo partly drawn) [Compound 134, (2S)-2-amino-4-(3-cyclopropylpropylsulfonimidoyl)butanoic acid] | ≥ 1 | – |
| ≤ 0.02 mM | N=[S@](=O)(CCCC(F)(F)F)CC[C@H](N)C(=O)O [Compound 139, (S)-2-amino-4-((S)-4,4,4-trifluorobutylsulfonimidoyl)butanoic acid] | < 1 | – |
| ≤ 0.02 mM | N=S(=O)(CCC1CCCCC1)CC[C@H](N)C(=O)O (stereo partly shown) [Compound 142] | ≥ 1 | – |
| > 2 mM | CC(C)(C)[C@@H](N)CS(=N)(=O)CC[C@H](N)C(=O)O (stereo partly shown) [Compound 147] | ≥ 1 | – |
| ≤ 0.02 mM | N=S(=O)(CCCC(F)(F)F)CC[C@H](N)C(=O)O (stereo partly drawn) [Compound 150, (2S)-2-amino-4-(4,4,4-trifluorobutylsulfonimidoyl)butanoic acid] | < 1 | – |
| 0.02 to 2 mM | N=S(=O)(CC[C@H](N)C(=O)O)CCC1(O)CCC1 (stereo partly shown) [Compound 153] | < 1 | – |
| 0.02 to 2 mM | CC(C)OCCCS(=N)(=O)CC[C@H](N)C(=O)O (stereo partly shown) [Compound 162] | ≥ 1 | – |
| 0.02 to 2 mM | CC(C)(F)CCS(=N)(=O)CC[C@H](N)C(=O)O (stereo partly shown) [Compound 163] | < 1 | – |
| 0.02 to 2 mM | N=S(=O)(CC[C@H](N)C(=O)O)Cc1ccccc1C(=O)O (stereo partly shown) [Compound 168] | ≥ 1 | – |
| 0.02 to 2 mM | CCC(CC(F)(F)F)CS(=N)(=O)CC[C@H](N)C(=O)O (stereo partly shown) [Compound 172] | ≥ 1 | – |
| 0.02 to 2 mM | N=S(=O)(CCOCC(F)(F)F)CC[C@H](N)C(=O)O (stereo partly shown) [Compound 175] | ≥ 1 | – |
| > 2 mM | COC(CC[S@@](=N)(=O)CC[C@H](N)C(=O)O)C(F)(F)F (stereo partly shown) [Compound 176] | ≥ 1 | – |
| ≤ 0.02 mM | COC(CC[S@](=N)(=O)CC[C@H](N)C(=O)O)C(F)(F)F (stereo partly shown) [Compound 178] | < 1 | – |
| 0.02 to 2 mM | CC(C)(CO)CCS(=N)(=O)CC[C@H](N)C(=O)O (stereo partly shown) [Compound 184] | < 1 | – |
| 0.02 to 2 mM | N=S(=O)(CC[C@H](N)C(=O)O)CCC1(C(N)=O)CCC1 (stereo partly drawn) [Compound 188, (2S)-2-amino-4-(2-(1-carbamoylcyclobutyl)ethylsulfonimidoyl)butanoic acid] | < 1 | – |
| 0.02 to 2 mM | N=S(=O)(CC[C@H](N)C(=O)O)CCC1(C(=O)Nc2ccccc2)CCC1 (stereo partly shown) [Compound 195] | ≥ 1 | – |
| 0.02 to 2 mM | N=S(=O)(CC[C@H](N)C(=O)O)CCC1(C(=O)N2CCC2)CCC1 (stereo partly shown) [Compound 196] | ≥ 1 | – |
| > 2 mM | CCCCS(=O)(CC[C@H](N)C(=O)OC)=NC(C)=O (stereo partly drawn) [Compound 197, (2S)-methyl 4-(N-acetylbutylsulfonimidoyl)-2-aminobutanoate] | ≥ 1 | – |

Source: patent publication US20260034094A1, “COMPOSITIONS AND METHODS FOR INDUCING FERROPTOSIS” (Kojin Therapeutics, Inc., priority 2022, published 2026)
